Experimental data published in patent US20100120703A1, “COMPOSITIONS AND METHODS FOR TREATING CANCER” (priority 2007, published 2010).

Experiments:
[1] = system: HepG2 cells; assay: cDNA microarray, drug toxicity and metabolism genes; assay type: cell-based, human; conditions: HepG2 cells before and after SIN treatment
Protocol: The advancement of nucleic acid array technology has made it possible to analyze the expression of multiple genes in a single experiment. The cDNA Microarray is used to characterize gene expression associated with a specific biological pathway in a more comprehensive and cost effective manner. The genes on the cDNA microarray membrane are targeted to the drug toxicity and metabolism pathways. It is a useful approach to study the biological activities of SIN.
HepG2 cells were treated and harvested as described in the foregoing examples. The cell pellet was dissolved in 500 μl TRIzol® reagent (Invitrogen, CA, USA). The whole solution was allowed to stand at room temperature for 5 minutes. The solution was centrifuged at 14,000 rpm for 10 minutes at 4° C. The supernatant was collected in a new tube with 100 μl chloroform. After shaking and incubation for 10 minutes at room temperature, the solution was centrifuged at 14,000 rpm for 15 minutes at 4° C. Recentrifugation was necessary if the layer was not clear. The upper aqueous layer was carefully transferred into a new tube with 250 μl isopropanol. After shaking, the tube was allowed to stand at room temperature for 10 minutes for RNA precipitation. […]
cRNA purification was performed with SuperArray Array Grade cRNA Cleanup Kit. […] The quality and quantity of the cRNA product were determined as described previously. […]

[2] = system: Sprague Dawley (SD) rats; assay: Serum AST/ALT assay, progression stage; assay type: in vivo, rat
Protocol: ALT (Alanine aminotransferase) and AST (Aspartate aminotransferase) are two enzymes that are specifically located in the liver. These two enzymes normally distribute little in blood serum. When liver damage occurs, the hepatocytes break and these two enzymes are released into the blood. An AST/ALT assay was used to diagnose liver damage. Rat blood was collected in a 13 ml BD PLUS-SST II serum vacutainer and allowed to stand for 20 minutes on ice to coagulate. The vacutainer was then centrifuged at 3,500 rpm for 15 minutes. The upper layer serum was collected. The AST/ALT assay was performed within 2 days to minimize the loss of the enzymes.
The serum AST activity assay was measured by a Stanbio AST (UV-Rate) kit. Fifteen milliliters of ddH2O were added into one bottle of the reagent in the kit and mixed thoroughly according to the kit protocol. One milliliter of the reagent was incubated at 37° C. for at least 10 minutes for each reaction. […] Absorbance was measured at OD 340 nm. After incubation for 1 minute, a reading was taken and the reading at this point was counted as time zero. Readings were then taken at 30 second interval for 3 minutes. The change of absorbance per minute was calculated and the AST activity was calculated by the formula
The ALT assay was measured by a Stanbio […]. […]

[3] = system: human colon cancer cells; conditions: cited from earlier work

C=CC/C(=N/OS(=O)(=O)[O-])S[C@@H]1OC(CO)[C@@H](O)C(O)C1O.[K+] (stereo partly shown) [SIN, sinigrin]
gene expression in drug toxicity and metabolism pathways [1]: many genes in drug toxicity and metabolism pathways were differentially expressed | rat serum ALT level ([2]; positive control 215% of negative control): levels similar to those in the negative control | rat serum AST level ([2]; positive control 265% of negative control): levels similar to those in the negative control | action on apoptosis and cell proliferation [3]: might be apoptosis- and cell proliferation-independent
